Consider six molecules from patent US20240082416A1, “AMATOXIN ANALOGS AND USES THEREOF” (THE UNIVERSITY OF BRITISH COLUMBIA, priority 2020, published 2024).

Several values for one entry are separate records, joined by “and”; a condition that tells them apart may be missing. Equal values may be shown once. Starred links: 1 amine or outer side, 2 acyl side, 3 side chain; linkers in the order of their positions; H or OH if unused. Positions of bridges follow the written chain, without caps; N, C: chain ends. Non-standard residues stand in square brackets, D forms with d. Residues, ends and D or L forms follow the SMILES beside them. Trp(2-yl) = O=C([C@H](Cc1c([*:3])[nH]c2ccccc12)N[*:1])[*:2]; X2 = [N-]=[N+]=N[C@@H]1C[C@@H](C(=O)[*:2])N([*:1])C1; Ile(4R-OH,5-OH) = C[C@H]([C@H](N)C(=O)O)[C@@H](O)CO

For data set [1], the target named is eukaryotic RNA polymerase II (Pol II) (Homo sapiens, UniProt P24928). The conditions noted are these: literature; cited from earlier work.
A short description of data set [2]: Cell viability assay (BrdU incorporation) on HEK293-OATP1B3 cells. Format: cell-based, human. The conditions noted are these: human, HEK293-OATP1B3 cells; for viability at 96 h, 1 µM: highest used concentration of 1 μM. Here is the method: (§1) . HEK293 and HEK-OATP1B3 cells were plated at 2.5×10^3 cells/well in a 1:1 mixture of Ham's F12 with DMEM containing 10% charcoal-stripped fetal calf serum (FCS) onto poly-D-lysine-coated 96-well plates and grown for 24 hours. Subsequently, cells were incubated with amanitin analogs at 8 different concentrations (1×10^−6 M to 1.28×10^−11 M, serial 1:5 dilutions). Following 96 h of drug exposure, cell viability was determined by a BrdU incorporation assay (Cell Proliferation ELISA, BrdU, Roche) and chemiluminescence was measured using a FLUOstar Optima plate reader (BMG LABtech). Data analysis was performed with GraphPad Prism 8 (GraphPad Software, Inc., La Jolla, CA) software to plot curve fits.
For orientation: Uptake of a labelled nucleoside into DNA is a usual measure of proliferation.

The next data set concerns HEK293-OATP1B3 cells. The data set is described as above. It is filed as cell-based, human. The conditions noted are these: HEK293-OATP1B3 vs HEK293. Here is the method:
as §1

The target of another data set is T1, Pol II (Homo sapiens, UniProt P24928).
T1 construct: HeLaScribe® nuclear extract containing Pol II and all other transcription factors; purchased Promega; host or cells: HeLa nuclear extract (endogenous protein)
Put plainly: In vitro transcription runoff assay using HeLaScribe nuclear extract. Format: biochemical. The conditions noted are these: for Transcription activity E (%): mean ± standard deviation. From the text:
(h) In vitro transcription assay of synthetic amanitins containing analogs of Hyp: Primers were purchased from IDT via standard phosphoramidite chemistry. dNTP and rNTP were purchased from Thermofisher. GoTaq polymerase and HeLaScribe*Nuclear Extract in vitro Transcription System was purchased from Promega. Taq polymerase was purchased from NEB. [^32P] α-dGTP (3000 Ci/mmol 10 mCi/ml EasyTide) and [^32P] α-GTP (3000 Ci/mmol 10 mCi/ml EasyTide) were purchased from Perkin Elmer. QIAquick PCR purifcation kit was purchased from Qiagen. AcGFP1-N1 was a gift (Addgene plasmid #54705; http://n2t.net/addgene:54705; RRID:Addgene_54705). DNA Primer sequences were:
The DNA template for transcription runoff was synthesized by PCR with template pAcGFP-N1, and primers P1 and P2. To a final volume of 20 μL, 1 x GoTaq Buffer, 250 μM of each dNTP, 500 nM of each primers P1 and P2, […] pAcGFP-N1 and 0.05 U/μL GoTaq were employed to thermocycle for 30 cycles (30 s at 95° C., 30 s at 50° C. and 60 s at 72° C., Bio-Rad). A 1 μL aliquot of the amplified solution was resolved with 6×DNA loading dye in a 1% agarose gel containing […] and then visualized using GelDoc XR imager (Bio-Rad). Purification was completed via QIAquick PCR purification kit (Qiagen). The radioactive chromatographic standard was synthesized by PCR with template pAcGFP-N1, and primers P3 and P4. To a final volume of 50 μL, 1 x Thermopol Buffer, 200 μM of each dNTP, 500 nM of each primers P3 and P4, 10 pg/μL pAcGFP-N1 and 0.02 U/μL Vent polymerase, 1 μL [^32P] α-dGTP were employed to thermocycle for 30 cycles (30 s at 95° C., 30 s at 62° C. and 30 s at 72° C., Bio-Rad). A 1 μL aliquot of the amplified solution was resolved with 6×DNA loading dye in 8% denaturing PAGE and then visualized by autoradiography via the Typhoon 9200 imager (Molecular namics-Amersham-GE). Purification was completed via QIAquick PCR purification kit (Qiagen). The transcription runoff assay was modified from HeLaScribe® Nuclear Extract in vitro Transcription System (Promega). […]. The pellet was resolved by 8% denaturing PAGE and then visualized by autoradiography via the Typhoon 9200 imager (Molecular dynamics-Amersham-GE). Dosimetry was calculated by ImageJ, and the 3 parameter logistic fit was completed by Origin 2019 (OriginLab). […]
All data were presented in mean±standard deviation (n=3).

Data set [3] has as its system CHO cells. In words: Viability assay against CHO cells (MTT colorimetric assay). It is filed as cell-based, Chinese hamster. The settings on record: for % viable cells: 72 h, replicates n = 1, 2, 3, listed as N3-Pro-amanitin (3). Here is the method: (§2) (f) Cell culture: Cells were cultured in Minimum Essential Medium Eagle—Alpha Modification (α-MEM) or […] Dulbecco's Modified Eagle Medium (DMEM), purchased from Gibco. […] All cell culture plastic ware was obtained from Coming or Falcon. Cells were cultured at 37° C. in a humidified chamber with 5% CO2. When used in cell culture, DMSO was purified by filtration through a […] filter. All experiments were carried out in a laminar flow culture cabinet, unless otherwise noted.
(§3) Immortalized CHO cells had been stored in liquid nitrogen. To revive cells, a 1-mL tube of the frozen cells in medium containing 10% DMSO was warmed in a 30° C. water bath and diluted with 9 mL of fresh media. Media contained 10% FBS and 100 U/mL penicillin and […] streptomycin, unless otherwise indicated. The cells were incubated in a T-25 flask at 37° C. at 5% CO2. After 24 hours, the medium was aspirated and replaced with fresh medium. When cells reached a level of 90-100% confluence, they were sub-cultured. […] Once the cells were detached from the tissue culture flask, 3-5 mL media was added to quench the trypsin and the mixture was transferred to a 10 mL centrifuge tube. The mixture was centrifuged for 5 min at […], and the supernatant was discarded. The cells were suspended in fresh medium, diluted as required, and transferred to a new culture flask.
(§4) To assay cell viability, a nearly confluent tissue culture flask was trypsinized, and the cells were counted following treatment with Trypan blue, using a hemocytometer. The cells were then diluted to the appropriate stock concentrations in fresh medium and transferred in 100 μL to a 96-well plate using a multi-channel pipette. The number of cells plated varied from experiment to experiment. These were incubated at 37° C. and 5% CO2 for a 24-hour period to allow for adherence. The medium was aspirated, and fresh medium was added, which contained the desired additives in DMSO. The cells were then re-incubated for 72 h. At the completion of the experiment, a 100 μL aliquot of 25 mg/mL MTT in phosphate-buffered saline (PBS) was added to each well. The plate was incubated three hours further to allow for the formation of the formazan product in viable cells. The media was carefully aspirated, and the purple product was solubilized in DMSO. […] Data was processed in Microsoft Excel and GraphPad Prism. Experiments were performed in triplicates unless otherwise noted, and the error bars were calculated as the standard error of the mean.
(§5) Each cell line was plated in a 96-well plate, with 100 μL of the stock solution per well (5000 cells per well) and incubated for 24 hours. […] The cells were incubated for 72 hours, at which point viability was assessed as described.
(Formazan colour is commonly taken as a measure of viable cells.)

Assay in data set [4]: as above
Format: cell-based, Chinese hamster. The conditions noted are these: Chinese hamster, CHO cells, 72 h, replicates n = 1, 2, 3, read-out: % viable cells. On the procedure:
as §2, §3, §4, §5

For the next data set, the system named is HEK293 cells. Format: cell-based, human. The settings on record: wt-HEK293 cells lacking OATP1B3; 96 h. On the procedure: as §1
In data set [5] the test system is CHO cells. The settings on record: background statement, read-out: Ki (CHO cells readily killed); cited from earlier work.
A further data set has as its target RNA-polymerase II (Homo sapiens, UniProt P24928). The conditions noted are these: cited from earlier work.

Usually Ki stands for a measure of affinity in units of concentration, obtained from inhibition or displacement. One may read the IC50 as the concentration needed to halve the response being measured. The Kd is the free concentration of one partner at which half of the binding sites on the other are occupied at equilibrium, for simple one-to-one binding.

With amanullin, the Ki in [1] is 10 to 40 nM.

As to `CC[C@H](C)[C@@H]1NC(=O)CNC(=O)[C@@H]2Cc3c([nH]c4cc(O)ccc34)[S@+]([O-])C[C@H](NC(=O)CNC1=O)C(=O)N[C@@H](CC(=O)O)C(=O)N1C[C@H](O)C[C@H]1C(=O)N[C@@H]([C@@H](C)[C@@H](O)CO)C(=O)N2` [β-amanitin, reference compound], the IC50 at 96 h in [2] (HEK293-OATP1B3 cells (OATP1B3 overexpressing HEK293), 96 h) worked out at 8.5 ± 1.1 nM. Also, in data set [2] (HEK293-OATP1B3 cells (OATP1B3 overexpressing HEK293)), the viability at 96 h, 1 µM worked out at 0%. In addition, the “fold increase in toxicity / reduction of the IC50 value on HEK293-OATP1B3 relative to HEK293 cells” value in the data set with HEK293-OATP1B3 cells is reported as 15 fold.

As for proamanullin, in data set [1], the Ki was 5000 to 20000 nM.

Turning to `CC[C@H](C)[C@@H]1NC(=O)CNC(=O)[C@@H]2Cc3c([nH]c4ccccc34)SC[C@H](NC(=O)CNC1=O)C(=O)N[C@@H](CC(N)=O)C(=O)N1C[C@H](N=[N+]=[N-])C[C@H]1C(=O)N[C@@H]([C@@H](C)[C@@H](O)CO)C(=O)N2` [Compound 3, N3-Pro-amanitin] (cyclo(CN[X2][Ile(4R-OH,5-OH)][Trp(2-yl)]GIG); thioether 1-5), the viability at 96 h, 1 µM in data set [2] (HEK293 cells overexpressing OATP1B3 (HEK293-OATP1B3)) is 68%. Moreover, the IC50 at Pol II (IC50 (nM), Table 12, n = 3, high values estimated from activity at [I]=1.0 μM) is above 1000 nM. Further, the “inhibitory effects” value on Pol II (up to 1 μM concentrations) is “did not exhibit any noticeable inhibitory effects”. The “% viable cells” value in the data set on CHO cells [3] (1e-005 M) was 100% and 94%; in the data set with CHO cells [3] (1.25e-006 M), 88% and 89%; in the data set on CHO cells [3] (1.56e-007 M) it was 89% and 88%; in the data set with CHO cells [3] (2.5e-006 M) it was 95% and 88%; with CHO cells [3] (3.125e-007 M) it was 89% and 91%; with CHO cells [3] (5e-006 M), 88% and 89%. Further, the “% viable cells” value with CHO cells [3] (6.25e-007 M) is 93% and 87%. Besides, the viability at 72 h, 1e-05 M in data set [4] (1e-005 M) turned out to be 107%. In addition, the viability at 72 h, 1.25e-06 M in [4] (1.25e-006 M) turned out to be 105%. The viability at 72 h, 1.56e-07 M in data set [4] (1.56e-007 M) is 101%. Moreover, the viability at 72 h, 2e-05 M in data set [4] (2e-005 M) turned out to be 112%. Also, the viability at 72 h, 2.5e-06 M in [4] (2.5e-006 M) turned out to be 104%. Further, the viability at 72 h, 3.125e-07 M in data set [4] (3.125e-007 M) worked out at 99%. Also, the viability at 72 h, 5e-06 M in data set [4] (5e-006 M) is 104%. Besides, the viability at 72 h, 6.25e-07 M in [4] (6.25e-007 M) was 101%.

For the molecule “α-amanitin [Compound 1, reference compound]”, the IC50 is 130 ± 80 nM with HEK293 cells and 350 to 1100 nM in the data set on CHO cells [3] (CHO cells, MTT assay, control). The “Transcription activity E (%)” value was 85.0 ± 2.4% on Pol II (1 nM); 69.5 ± 9.4% on Pol II (3 nM); 48.1 ± 9.8% at Pol II (10 nM); 22.9 ± 2.6% at Pol II (30 nM); 9.5 ± 4.1% on Pol II (100 nM). For the same molecule, in the data set with CHO cells [5], the Ki was around 500 nM.

Regarding amanitin, the Kd at RNA-polymerase II is 3 nM.
